Data: ChEMBL document CHEMBL5604063, “ASAP - DENV-2 NS2B-NS3 protease fluorescence dose response” (2024)
Values joined by “and” are separate entries in the source; they are usually repeats but may differ in a detail not shown here. Identical values can stand only once.

Legend:
Genome polyprotein [1] = biological target: T1, Genome polyprotein (dengue virus type 2, UniProt P29990); type: functional, Thailand/16681/1984
Genome polyprotein [2] = biological target: T1, Genome polyprotein; type: functional, Thailand/16681/1984; remark: listed apart in the source

T1 sequence (P29990 1346-1475 limits assumed): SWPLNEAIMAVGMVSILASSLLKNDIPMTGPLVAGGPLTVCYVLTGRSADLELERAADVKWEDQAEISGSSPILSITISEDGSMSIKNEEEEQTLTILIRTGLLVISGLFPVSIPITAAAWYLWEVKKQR
T1 sequence (P29990 1476-2093 limits assumed): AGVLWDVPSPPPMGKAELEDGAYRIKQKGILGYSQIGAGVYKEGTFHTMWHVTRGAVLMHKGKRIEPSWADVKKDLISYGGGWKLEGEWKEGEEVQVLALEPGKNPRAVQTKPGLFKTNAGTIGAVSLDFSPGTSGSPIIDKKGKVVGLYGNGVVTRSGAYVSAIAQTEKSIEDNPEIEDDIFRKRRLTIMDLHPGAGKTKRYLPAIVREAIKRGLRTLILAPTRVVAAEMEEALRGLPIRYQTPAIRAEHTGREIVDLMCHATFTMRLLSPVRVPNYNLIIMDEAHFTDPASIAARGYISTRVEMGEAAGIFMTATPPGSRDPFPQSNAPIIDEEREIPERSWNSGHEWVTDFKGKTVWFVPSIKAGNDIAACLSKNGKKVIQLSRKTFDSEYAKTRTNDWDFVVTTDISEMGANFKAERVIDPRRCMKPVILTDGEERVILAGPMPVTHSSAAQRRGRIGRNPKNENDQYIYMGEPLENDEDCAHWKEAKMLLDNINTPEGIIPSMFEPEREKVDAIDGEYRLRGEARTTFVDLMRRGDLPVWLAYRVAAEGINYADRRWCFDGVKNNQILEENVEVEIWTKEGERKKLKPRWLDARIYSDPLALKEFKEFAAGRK

Compound	IC50 (Genome polyprotein [1])	IC50 (Genome polyprotein [2])
O=C(Nc1cc(-c2cccnc2)ccn1)c1ccc(C2CC2)cc1	> 100 µM	> 99.5 µM
CC1=C(c2cc(F)cc(C(=O)Nc3ccc4c(c3)CNC4)c2)CCCC1	> 100 µM	> 99.5 µM
O=C(Nc1ccc2c(c1)CNC2)c1cc(F)cc(-c2c[nH]c(=O)c(F)c2)c1	> 100 µM	> 99.5 µM
C=Cc1cc2c(cc1NC(=O)c1cc(F)cc3[nH]ncc13)CNC2	32.8 µM	52.7 µM
COc1cc(C(=O)Nc2ccc3c(c2)CNC3)cc2cnn(C)c12	> 100 µM	> 99.5 µM
O=C(Nc1ccc2c(c1)CNC2)c1cc(F)cc2[nH]c(-c3ccccc3F)nc12	18.5 µM and 33.8 µM	7.91 µM and 4.23 µM
O=C(Nc1cc([C@H]2CCOC2)ccn1)c1cc(Cl)cc2[nH]ncc12	> 100 µM	> 99.5 µM
Cc1nn(C)c(C)c1[C@H]1CCCN1C(=O)Nc1ccc2c(c1)CNC2	> 100 µM	> 99.5 µM
CC(C)NC(=O)[C@H](Nc1ccc2c(c1)CNC2)c1cccc2cn[nH]c12	> 100 µM	> 99.5 µM
O=C(Nc1cc2c(cc1C1CC1)CNC2)c1cc(F)cc2[nH]ncc12	62.5 µM	70.9 µM
C#C[C@H](Nc1cc([C@H]2CCOC2)ccn1)c1cc(C2CC2)n(C)n1	> 100 µM	> 99.5 µM
CC(C)NC(=O)[C@H](Nc1ccc2c(c1)CN(CC(F)F)C2)c1cc(Cl)cc2[nH]ncc12	> 100 µM	> 99.5 µM
O=C(Nc1ccc2c(c1)CNC2)c1cc(F)cc(/C=C/c2ccccc2)c1	57.3 µM	42.1 µM
O=C(NCC(F)F)[C@H](Nc1ccc2c(c1)CNC2)c1cc(Cl)cc2[nH]ncc12	> 100 µM	> 99.5 µM
Cn1ncc2c(C(=O)Nc3ccc4c(c3)CNC4)cc(Cl)cc21	> 100 µM	> 99.5 µM
O=C(Nc1ccc2c(c1)CN[C@H]2CCO)c1cc(F)cc2[nH]ncc12	23.9 µM and 29.9 µM	50.8 µM
Cc1cnccc1-c1cc(NC(=O)c2cc(F)cc3[nH]ncc23)cc2c1CNC2	65.4 µM	> 99.5 µM
O=C(Nc1cc([C@H]2CCOC2)ccn1)c1cc(Br)cc2[nH]ccc12	> 100 µM	> 99.5 µM
O=C(O)CCCc1cc(NC(=O)c2cc(F)cc3[nH]ncc23)cc2c1CNC2	48.7 µM	> 99.5 µM
O=C(Nc1ccc2c(c1)CNC2)c1cc(Cl)cc2nn(C3CCC3)cc12	89.2 µM	> 99.5 µM
Cc1cc(-c2cc(F)cc(C(=O)Nc3ccc4c(c3)CNC4)c2)[nH]n1	> 100 µM	> 99.5 µM

Compound	IC50 (Genome polyprotein [1])	IC50 (Genome polyprotein [2])
O=C(Nc1ccc2c(c1)CNC2)c1cc(Cl)cc2c1cnn2C1CCOCC1	> 100 µM	> 99.5 µM
Cn1cc2c(C(=O)Nc3ccc4c(c3)CNC4)cc(Cl)cc2n1	> 100 µM	> 99.5 µM
O=C(Nc1cc([C@H]2CCOC2)ccn1)c1cc(F)c2[nH]ccc2c1	> 100 µM	> 99.5 µM
CSCCNC(=O)[C@H](Nc1ccc2c(c1)CNC2)c1cc(Cl)cc(C2CC2)c1	> 100 µM	> 99.5 µM
CS(=O)(=O)N1CC[C@]2(C1)C(=O)Nc1cccc(C(=O)Nc3ccc4c(c3)CNC4)c12	> 100 µM	> 99.5 µM
COc1ccc([C@H]2C[C@H](C)CN2C(=O)Nc2ccc3c(c2)CNC3)cc1	> 100 µM	> 99.5 µM
Cc1c(C(=O)Nc2cc(-c3cccnc3)ccn2)cc(CC(C)(C)C)n1C	> 100 µM	> 99.5 µM
CSCCCNC(=O)[C@H](Nc1ccc2c(c1)CNC2)c1cc(Cl)cc(C2CC2)c1	> 100 µM	> 99.5 µM
CC(C)(C)c1noc2nc(C(=O)Nc3ccc4c(c3)CNC4)ccc12	> 100 µM	> 99.5 µM
O=C(Nc1ccc2c(c1)CNC2)c1cc(F)cc2nn(-c3ccccn3)nc12	4.11 µM and 3.88 µM	4.99 µM and 4.27 µM
CC(C)(c1nc2c(C(=O)Nc3ccc4c(c3)CNC4)cc(F)cc2[nH]1)S(C)(=O)=O	34.3 µM and 51.7 µM	33.6 µM and 26.3 µM
O=C(Nc1cc(-c2cccnc2)ccn1)c1c[nH]c2ncccc12	> 100 µM	> 99.5 µM
COCCCNC(=O)[C@H](Nc1ccc2c(c1)CNC2)c1cc(Cl)cc(C2CC2)c1	> 100 µM	> 99.5 µM
NCCc1csc2cc(C(=O)Nc3ccc4c(c3)CNC4)ccc12	> 100 µM	> 99.5 µM
O=C(Nc1ccc2c(c1)CN[C@H]2C[C@H](O)CO)c1cc(Cl)cc2[nH]ncc12	80.2 µM	> 99.5 µM
Cn1c(=O)[nH]c2cc(C(=O)Nc3ccc4c(c3)CNC4)cc(Br)c21	60 µM and 52.9 µM	> 99.5 µM
O=C(Nc1ccc2c(c1)CNC2)c1ccc2c(Br)csc2c1	> 100 µM	58.6 µM
C=C[C@H]1NCc2cc(NC(=O)c3cc(F)cc4[nH]ncc34)ccc21	34 µM	86.6 µM
O=C(Nc1cc2c(c(-c3ccnnc3)c1)CNC2)c1cc(Cl)cc2[nH]ncc12	98.4 µM	> 99.5 µM
CC(C)(C)OC(=O)N1Cc2ccc(NC(=O)c3ccc4c(Br)csc4c3)cc2C1	> 100 µM	> 99.5 µM
O=C(Nc1ccc2c(c1)CNC2)c1cc(F)cc(-c2ccncc2)c1	> 100 µM	> 99.5 µM
